The subject of one data set is RAW264.7 cells. Nature of the data set: Cytotoxicity, MTT method. In kind it is cell-based. As to conditions: for RAW 264.7 cell survival: 128 μM; for cytotoxicity: low concentration (0 ~ 32 μM). As to the method:
RAW264.7 cells (2.5 × 10^4 cells/mL, 100 μL) were added into the 96-well plate and cultured at 37 °C in 5% CO2 for 24 h. After removing the medium and washing twice with PBS, 100 μL peptides (1, 2, 4, 8, 16, 32, 64 and 128 μM) were added to each well. PBS was served as the negative control. After incubation for 24 h, 20 μL MTT (5 mg/mL) was added into each well and incubated for another 4 h. Then, the supernatant was removed and 150 μL dimethylsulfoxide (DMSO) was added into the plate and shaken for 10 min. The absorbance of each well was measured at 570 nm and the survival rate of cells was calculated as follows: Survival (%) = [(Abspeptide/ Abscontrol)] × 100, where Abspeptide and Abscontrol present the absorbance of peptide and PBS control, respectively.

The test system of the next data set is LPS. Nature of the data set: Lung injury score (H&E histology), LPS-challenged mice. In kind it is in vivo, mouse. The note with it: 7 μmol/kg pre-treatment, 24 h (implied by contrast with 12 h). As to the method: Fig. 8 Effects of cleavable chimeric peptide R7 on lung injury in mice. […] Lung injury was analyzed histologically at 12 h or 24 h, respectively. a Histopathological images of lung sections after staining with hematoxylin and eosin (H&E). Images are presented at a magnification of 100×. b Pathological analysis of lung. Lung injury involves in inflammation (such as peribronchial, perivascular, intrabronchial, and pulmonary interstitial one), bronchial exudate, and alveolar septal thickening, respectively. The specific degree of lung injury of each mouse is assessed by Score 0 (asymptomatic), Score 1 (mild), Score 2 (moderate), and Score 3 (severe), respectively. c The number of counted infiltrated inflammatory cells within processed lung sections from (a). Data represent the mean ± SD of three independent experiments. Different lower-case letters indicate a significant difference between the two groups (p < 0.05).
Lung tissues were taken at 12 h and 24 h, respectively, washed with PBS, and fixed in 4% paraformaldehyde overnight. After dehydration in different concentrations of ethanol (including 75%, 85%, 90%, and 95%, respectively), the tissues were embedded in paraffin, sliced, and stained with hematoxylin. Observation was performed under a light microscope. The mice only injected with E. coli, LPS or PBS was regard as the negative or blank control.

In a further data set the test system is MDR E. coli. Nature of the data set: Antibacterial activity after incubation in human serum (inhibition assay). In kind it is cell-based, Escherichia coli. As to conditions: Supplementary Fig. 2c source data, mean. As to the method:
Serum stability of R7 and its parent-L7 was tested as previously described with minor modifications[46],[53]. […] The samples were incubated at 4 °C for 15 min and centrifuged for 10 min at 12,000 rpm. The supernatants were analyzed by RP-HPLC or inhibition zone method. Moreover, after incubation in serum for 2 h, R7 was analyzed by matrix assisted laser desorption/ionization-time of flight mass spectrometry (MALDI-TOF MS) and high-performance liquid chromatography-mass spectrometry (HPLC-MS), respectively.
Supplementary Figure 2. Serum stability and release of peptides in human serum. a Detection of the peak area change of peptides in serum by RP-HPLC. b The remaining rate of peptides in bovine serum. c The antibacterial activity of peptides against MDR E. coli in serum detected by an inhibition assay. d The MALDI-TOF mass spectrometry of R7 after incubation in bovine serum for 2 h. The experiments were repeated three times. Data in a and d is representative of three biological replicates.
The results are given as the mean ± SD of three independent experiments in b and c. Different lower-case letters indicate a significant difference between the two groups (p<0.05).
(§1) (1 picture or pasted object on this page, not shown here)

Data set [1] concerns p65, p-p65, ERK1/2, p-ERK1/2 and IκBα. In words: Western blotting of NF-κB and MAPK pathway proteins in lung tissues of LPS-challenged mice. In kind it is in vivo, mouse. The note with it: for IκBα/β-actin ratio / p-ERK1/2/ERK1/2 ratio / p-p65/p65 ratio: Supplementary Fig. 5b-d source data, lung tissues, peptide + LPS, mean; for ERK1/2 phosphorylation: lung tissues of 24 h, western blot. As to the method: Additionally, the lung tissues of 24 h were homogenized and suspended in […] buffer, and the protein levels of supernatants were quantified using a Bradford protein assay kit. A total of 30 μg proteins were analyzed on a sodium dodecyl sulfate-polyacrylamide gel electrophoresis gel and were immunoblotted onto PVDF membranes, followed by an incubation with the primary antibodies of p65, p-p65, extracellular signal-regulated kinase (ERK)1/2, p-ERK1/2 and IκBα overnight at 4 °C. After washing, the blots were incubated with the peroxidase conjugated goat-rabbit or goat-mouse antibodies. Relative protein expression levels were quantified by a densitometric measurement of chemiluminescence (ECL) reaction band. β-actin was used as the internal reference. […]
pathways in lung tissues.
LPS. a The protein levels of p65, p-p65, ERK1/2, p-ERK1/2, and IκBα in lungs were analyzed by western blotting. b Densitometric analysis of p-ERK1/2/ERK1/2 ratio. c. Densitometric analysis of p-p65/p65 ratio. d Densitometric analysis of IκBα/β-actin ratio. All data were analyzed with one-way ANOVA, and data are means ± SD (n = 3). p-values< 0.05 were considered significant. **, p < 0.01, […]
as §1

Data set [2] can be described thus: Serum stability in mouse serum (RP-HPLC). The note with it: 25% mouse serum; for remaining at 0.5 h, 0.5 mM / remaining at 1 h, 0.5 mM / remaining at 2 h, 0.5 mM / remaining at 4 h, 0.5 mM / remaining rate in mouse serum / remaining at 8 h, 0.5 mM: peptide 0.5 mM, mean of three; for remaining at 0.5 h, 0.5 mM / remaining at 1 h, 0.5 mM / remaining at 2 h, 0.5 mM / remaining at 4 h, 0.5 mM / remaining at 8 h, 0.5 mM: read-out: remaining rate in mouse serum; for remaining rate in mouse serum / remaining at 8 h, 0.5 mM: 8 h; for peptide remained intact in mouse serum: range from 2 h to 8 h of incubation. In kind it is in vitro ADME. As to the method:
Serum stability of R7 and its parent-L7 was tested as previously described with minor modifications[46],[53]. Briefly, each peptide was added to the 25% mouse serum to a final concentration of 0.5 mM; 250 µL aliquots of samples were taken at 0, 0.5, 1, 2, 4 and 8 h, and mixed with 20 µL 15% trichloroacetic acid (TCA). The samples were incubated at 4 °C for 15 min and centrifuged for 10 min at 12,000 rpm. The supernatants were analyzed by RP-HPLC or inhibition zone method. Moreover, after incubation in serum for 2 h, R7 was analyzed by matrix assisted laser desorption/ionization-time of flight mass spectrometry (MALDI-TOF MS) and high-performance liquid chromatography-mass spectrometry (HPLC-MS), respectively.

[3] abbreviates: incubation in human serum 0.5 h.

We go through two compounds from paper PMC10654507, “A cleavable chimeric peptide with targeting and killing domains enhances LPS neutralization and antibacterial properties against multi-drug resistant E. coli” (Communications Biology, 2023).

Residues, ends and D or L forms follow the SMILES beside them.

For `CSCC[C@H](NC(=O)[C@H](CCCNC(=N)N)NC(=O)[C@H](Cc1c[nH]c2ccccc12)NC(=O)[C@H](C)NC(=O)[C@H](Cc1c[nH]c2ccccc12)NC(=O)[C@H](CCCNC(=N)N)NC(=O)[C@H](Cc1c[nH]c2ccccc12)NC(=O)[C@H](C)NC(=O)[C@H](CCCCN)NC(=O)[C@@H](N)Cc1ccccc1)C(=O)N[C@@H](CCCCN)C(=O)N[C@@H](CCCCN)C(=O)N[C@@H](CC(C)C)C(=O)N[C@@H](C)C(=O)N[C@@H](C)C(=O)N1CCC[C@H]1C(=O)N[C@@H](CO)C(=O)O` [L7] (H-FKAWRWAWRMKKLAAPS-OH), in the data set on RAW264.7 cells, the “RAW 264.7 cell survival” value was 87.7%; the cytotoxicity entry was “no hemolysis and cytotoxicity”. For the same compound, the lung injury score in the data set with LPS is listed as 6.3 points. The “antibacterial activity against MDR E. coli in human serum detected by an inhibition assay” value (“antibacterial activity … by an inhibition assay” below) in the data set on MDR E. coli (incubation in human serum 0 h) stood at 0.99. Besides, the “antibacterial activity … by an inhibition assay” value in the data set on MDR E. coli (setting [3]) stood at 0.9833. Further, in the data set on MDR E. coli (incubation in human serum 1 h), the “antibacterial activity … by an inhibition assay” value is reported as 0.9833. For the same compound, in the data set on MDR E. coli (incubation in human serum 2 h), the “antibacterial activity … by an inhibition assay” value is reported as 0.8667. The “antibacterial activity … by an inhibition assay” value with MDR E. coli (incubation in human serum 4 h) is 0.78. For the same compound, in the data set on MDR E. coli (incubation in human serum 8 h), the “antibacterial activity … by an inhibition assay” value came out at 0. In data set [1], the IκBα/β-actin ratio worked out at 1.143, the p-ERK1/2/ERK1/2 ratio was determined as 1.133, the p-p65/p65 ratio was 1.216 and the ERK1/2 phosphorylation entry is “not markedly attenuated”. In addition, in data set [2], the fraction remaining at 0.5 h, 0.5 mM amounted to 74.5%; the amount remaining at 1 h, 0.5 mM came out at 62.7%; the amount remaining at 2 h, 0.5 mM turned out to be 25.3%; the share remaining at 4 h, 0.5 mM was 6.01%. For the same compound, in data set [2], the “remaining rate in mouse serum” value is “completely undetectable”; the share remaining at 8 h, 0.5 mM came out at 0.829%; the “peptide remained intact in mouse serum” value is on record as 25.3 ~ 0.8%.

For `CSCC[C@H](NC(=O)[C@H](CCCNC(=N)N)NC(=O)[C@H](Cc1c[nH]c2ccccc12)NC(=O)[C@H](C)NC(=O)[C@H](Cc1c[nH]c2ccccc12)NC(=O)[C@H](CCCNC(=N)N)NC(=O)[C@H](Cc1c[nH]c2ccccc12)NC(=O)[C@H](C)NC(=O)[C@H](CCCCN)NC(=O)[C@H](Cc1ccccc1)NC(=O)[C@H](CCCNC(=N)N)NC(=O)[C@H](CCCNC(=N)N)NC(=O)[C@H](CCCCN)NC(=O)[C@H](CCCNC(=N)N)NC(=O)[C@H](CCCCN)NC(=O)[C@H](Cc1ccccc1)NC(=O)[C@H](Cc1ccccc1)NC(=O)[C@H](CO)NC(=O)[C@H](C)NC(=O)[C@H](CCCNC(=N)N)NC(=O)[C@@H](NC(=O)[C@H](CCCCN)NC(=O)[C@H](Cc1c[nH]c2ccccc12)NC(=O)[C@H](CCCNC(=N)N)NC(=O)CNC(=O)[C@H](CCC(N)=O)NC(=O)[C@@H](NC(=O)[C@@H](N)CCCNC(=N)N)C(C)C)C(C)C)C(=O)N[C@@H](CCCCN)C(=O)N[C@@H](CCCCN)C(=O)N[C@@H](CC(C)C)C(=O)N[C@@H](C)C(=O)N[C@@H](C)C(=O)N1CCC[C@H]1C(=O)N[C@@H](CO)C(=O)O` [R7] (H-RVQGRWKVRASFFKRKRRFKAWRWAWRMKKLAAPS-OH), in the data set on RAW264.7 cells, the “RAW 264.7 cell survival” value was 58.2%; the cytotoxicity entry was “no hemolysis and cytotoxicity”. The lung injury score in the data set with LPS is 3.0 points. The “antibacterial activity … by an inhibition assay” value in the data set with MDR E. coli (incubation in human serum 0 h) was 0.8933. For the same compound, the “antibacterial activity … by an inhibition assay” value in the data set with MDR E. coli (setting [3]) was 0.91. In addition, the “antibacterial activity … by an inhibition assay” value in the data set on MDR E. coli (incubation in human serum 1 h) is 0.91. For the same compound, the “antibacterial activity … by an inhibition assay” value in the data set on MDR E. coli (incubation in human serum 2 h) worked out at 0.8967. The “antibacterial activity … by an inhibition assay” value in the data set on MDR E. coli (incubation in human serum 4 h) was found to be 0.9033. The “antibacterial activity … by an inhibition assay” value in the data set on MDR E. coli (incubation in human serum 8 h) is reported as 0.8967. In data set [1], the IκBα/β-actin ratio was 1.322, the p-ERK1/2/ERK1/2 ratio turned out to be 1.134, the p-p65/p65 ratio turned out to be 0.775 and the ERK1/2 phosphorylation entry is reported as “not markedly attenuated”. In data set [2], the amount remaining at 0.5 h, 0.5 mM worked out at 101%; the fraction remaining at 1 h, 0.5 mM is 81.6%; the share remaining at 2 h, 0.5 mM was determined as 29.8%; the amount remaining at 4 h, 0.5 mM is 21.2%. In data set [2], the “remaining rate in mouse serum” value is ~ 20%; the fraction remaining at 8 h, 0.5 mM was 21.7%; the “peptide remained intact in mouse serum” value was 29.8 ~ 21.7%.
